According to patent US11026989B2, “Composition for treating erectile dysfunction by Orchis anatolica extract” (Jordan University of Science and Technology, priority 2016, dated 2021):

Tested on: penile tissue (corpus cavernosum strips)
Experiment: In vitro relaxation of penile tissue strips in physiological organ bath after induced contraction
Set-up: species or system New Zealand rabbit and albino rats
Source text: A water-jacketed physiological organ bath provides a stable and adjustable way of organ stability and temperature control. Substrates and other nutrients that are required to sustain tissue function were provided via a physiological solution (e.g., Krebs solution). This will allowed the study of evoked tissue responses to pharmacological agents and/or electrical stimulation.
Penile tissues from a mature New Zealand rabbit (e.g., 3-3.5 kg) and albino rats (e.g., 300-350 g) were dissected out and cleaned of the outer adherent connective tissue, and the two corpora cavernosa integral tissues were obtained. Each corpus cavernosum was cut lengthwise into 4 pieces measuring about 2 mm thick and 10-12 mm long out of which a 7-8 mm long piece was taken from the middle part of each strip by removing the two unwanted edges of these strips. The strips were kept in a well oxygenated Krebs solution, pre-cooled to 4° C., and placed in a refrigerator until the initiation of the experiment.
Each erectile tissue (“ET”) was mounted by clipping both of its ends within the bath. An ET strip was hooked to one clip end, which was tied to a metal wire (e.g., mounting hook), which was fixed to a bottom of a water-jacketed chamber. The top end of the strip was clipped to a cotton thread and connected to a lever (e.g., arm), which was connected to a Harvard isotonic transducer. The former was connected to a Harvard Universal Oscillograph for recording the force of contraction to an isotonic transducer. The tissue strip was stretched against a fixed caliber weight of 2 gm attached to the lever of the isotonic transducer. The free movable lever end was horizontally adjusted receptive to any movement according to the contraction and relaxation of the ET within the path when stimulated. Before each experiment, the transducer was calibrated two times against this caliber weight. The bath into which the tissue was mounted contained 25 ml of oxygenated Krebs solution with continuous oxygenation (gas mixture of 95% O2 and 5% CO2 and at 37° C.) and left for 60 minutes before starting the experiment.
Certain specifications for collection of Orchis anatolica plants were adopted so that the intact roots together with the potato-shaped bulb parts were collected and preserved intact. Bulbs were detached from roots and left to dry at air temperature, and then separated into two categories: a large rounded sized bulb resembling the small sized potato (male bulb) and an elongated small sized bulb (female or feeding bulb). The round potato shaped bulb was chopped and grinded using an electrical grinder until a powder was obtained. Each 500 g of dried and grinded orchis roots was then refluxed in (2 L) 70% ethanol at 50° C. for 36 hours in a continuous extraction (soxhlet) apparatus. Ethanol extract was filtered and concentrated under reduced pressure at 50° C. using a rotary evaporator. Red Korean Panax Ginseng was obtained from a South Korea market as a concentrated powder vacuumed and sealed in metal container packages of 50 g (commercially obtained from KOREAEXPORT CO LTD). Powder was dissolved well in distilled water from which different concentrations were used. Different doses of both Orchis anatolica extract and Red Korean Panax Ginseng were used to obtain and determine the maximum effect of ET response.
A 1 liter Krebs stock solution was prepared the day before the experiment containing the following chemicals: NaCl (125 mM), NaHCO3 (20 mM), KCl (4 mM), NaH2PO4 (1.8 mM), MgSO4 (1.8 mM), CaCl2 (1.8 mM), glucose (10 mM), and HEPES buffer (10 mM) (see Table 1). For a final 1 liter Krebs solution, 725 ml ringer and […] Deionized water were added. The solution pH was set to 7.4 after gassing with 95% O2/5% CO2 for 30 minutes before it was used. Krebs solutions were freshly prepared on each experimental day from the stock solutions stored in the refrigerator. […]

Structure (SMILES) | Time dependent penile tissue contraction (−) and relaxation (+) response to treatment (5 minutes, 0.002 g/50 ml Krebs, after phenylephrine contraction) [%] | Time dependent penile tissue contraction (−) and relaxation (+) response to treatment (15 minutes, 0.002 g/50 ml Krebs, after phenylephrine contraction) [%] | Time dependent penile tissue contraction (−) and relaxation (+) response to treatment (25 minutes, 0.002 g/50 ml Krebs, after phenylephrine contraction) [%] | Time dependent penile tissue contraction (−) and relaxation (+) response to treatment (5 minutes, 0.0509 gm stock solution) [%^] | Time dependent penile tissue contraction (−) and relaxation (+) response to treatment (10 minutes, 0.0509 gm stock solution) [%^] | Time dependent penile tissue contraction (−) and relaxation (+) response to treatment (15 minutes, 0.0509 gm stock solution) [%^] | Time dependent penile tissue contraction (−) and relaxation (+) response to treatment (20 minutes, 0.0509 gm stock solution) [%] | Time dependent penile tissue contraction (−) and relaxation (+) response to treatment (25 minutes, 0.0509 gm stock solution) [%]
CCCc1nn(C)c2c(=O)[nH]c(-c3cc(S(=O)(=O)N4CCN(C)CC4)ccc3OCC)nc12 [Sildenafil] | 11 | 12 | 24 |  |  |  |  | 
CNC[C@H](O)c1cccc(O)c1 [L-Phenylephrine] |  |  |  | −6.8 | −8.2 | −9.5 | −10 | −10
